Results: patent publication US10377725B2, “Phenyl amino pyrimidine compound or polymorph of salt thereof” (Suzhou Zelgen Biopharmaceuticals Co., Ltd., priority 2015, dated 2019)

What was measured:
[1] = accelerated stability test of polymorphs; assay type: physicochemical; settings: accelerated test 40±2° C., 75%±5% RH, 6 months; for purity after accelerated test: compared to freshly prepared (0 Month)
[2] = hygroscopicity test of polymorphs (Chinese Pharmacopoeia 2010 edition, Appendix XIX J); assay type: physicochemical; settings: 25° C.±1° C., saturated ammonium sulfate solution, 24 h
Protocol: The test was performed according to the guiding principles of drug's hygroscopic test (Chinese Pharmacopoeia 2010 edition, Appendix XIX J).
1. Take 4 dry glass weighing bottles with lids (60 mm of the outer diameter and 30 mm of the height). On the day before the test, the bottles were placed in a glass dryer (“constant temperature and humidity dryer”) where a saturated ammonium sulfate solution was placed, and the glass dryer was placed in the bottom of a constant temperature and humidity box at 25° C.±1° C.
2. After each empty weighing bottle together with its lid were placed in the “constant temperature and humidity dryer” for 24 hours, stabilize precisely the weight of each unit by a set (one weighing bottle+its lid), recorded as m1.
3. A polymorph II sample was taken and tiled in a glass weighing bottle which had been weighed (the thickness of a sample was about 1 mm), and the bottle was covered, the weight of each weighing bottle (one weighing bottle+its lid+the sample) was precisely weighed, recorded as m2.
3. Each sample was placed in the “constant temperature and humidity dryer” for 24 h, and then the weight of each weighing bottle (one weighing bottle+its lid+the sample) was precisely weighed, recorded as m3.
4. The percentage of hygroscopicity weight increase of each sample was calculated (the formula was shown as follows), and it is defined as no or almost no hygroscopicity when the percentage of hygroscopicity weight increase is less than 0.2%. It is defined as slightly hygroscopicity when the percentage of hygroscopicity weight increase is equal or greater than 0.2%, but less than 2.0%. the percentage of weight increase=[(m3−m2)/(m2−m1)]×100%

SMILES	degradated impurity [1]	stability of crystal form [1]	purity after accelerated test [1]	hygroscopicity [2]	percentage of weight increase [2]
Cl.Cl.[2H]C1([2H])CN(c2ccc(Nc3nccc(-c4ccc(C(=O)NCC#N)cc4)n3)cc2)CC([2H])([2H])O1 [polymorph I, N-(cyanomethyl)-4-(2-((4-(2′,2′,6′,6′-d4-morpholino)phenyl)amino)pyrimidin-4-yl)benzamide dihydrochloride]	no obvious degradated impurity was observed	very stable	above 99%	slightly hygroscopicity (slightly hygroscopicity when the percentage of hygroscopicity weight increase is equal or greater than 0.2%, but less than 2.0%)	–
Cl.Cl.O.[2H]C1([2H])CN(c2ccc(Nc3nccc(-c4ccc(C(=O)NCC#N)cc4)n3)cc2)CC([2H])([2H])O1 [polymorph II, N-(cyanomethyl)-4-(2-((4-(2′,2′,6′,6′-d4-morpholino)phenyl)amino)pyrimidin-4-yl)benzamide dihydrochloride monohydrate]	no obvious degradated impurity was observed	very stable	above 99%	slightly hygroscopicity (slightly hygroscopicity when the percentage of hygroscopicity weight increase is equal or greater than 0.2%, but less than 2.0%)	0.24%
Cl.[2H]C1([2H])CN(c2ccc(Nc3nccc(-c4ccc(C(=O)NCC#N)cc4)n3)cc2)CC([2H])([2H])O1 [polymorph III, N-(cyanomethyl)-4-(2-((4-(2′,2′,6′,6′-d4-morpholino)phenyl)amino)pyrimidin-4-yl)benzamide monohydrochloride]	no obvious degradated impurity was observed	very stable	above 99%	–	–
[2H]C1([2H])COCC([2H])([2H])N1c1ccc(Nc2nccc(-c3ccc(C(=O)NCC#N)cc3)n2)cc1 [polymorph V, N-(cyanomethyl)-4-(2-((4-(2′,2′,6′,6′-d4-morpholino)phenyl)amino)pyrimidin-4-yl)benzamide]	no obvious degradated impurity was observed	very stable	above 99%	–	–
